These results are taken from patent EP0183271B1, “Lysin derivative and proteinase inhibitor” (Okamoto, Shosuke, priority 1984, dated 1986).

The structures appear in SMILES notation. Read-outs that look alike come from different tables or passages of the source. Square brackets hold non-standard residues; d marks the D form. Peptide text beside a SMILES is read from it. * marks the point of attachment. dPhg = N[C@@H](C(=O)O)c1ccccc1; Tos = Cc1ccc(S(=O)(=O)*)cc1

The target of test [1] is T1, Plasmin (Homo sapiens, UniProt P00747). Kind of test: biochemical. Conditions: substrate S-2251. On the procedure:
(§1) (1) Evaluation of Antiplasmin Activity
(ii) Determination of prevention activity for S-2251 decomposition
An inhibitor sample is dissolved in a 0.05 M Tris-hydrochloric acid buffer solution (pH = 7.4) to make the total volume to 400 µl. To this solution, 50 pl of a 3 mM S-2251 solution is added and the mixture is incubated at a temperature of 37°C for 5 minutes in a constant temperature bath. Then, 50 pl of a 0.2 casein unit/ml human plasmin is added and the mixture is incubated at a temperature of 37°C for 4 minutes. Thereafter, the reaction is stopped by adding 50 µl of 50% acetic acid.
The absorbance of p-nitroaniline formed in the reaction mixture is determined at 405 nm. Thus, the concentration I50 of the inhibitor sample, at which the absorbance is one half (i.e., 1/2) of that obtained in the absence of the inhibitor, is determined.

For test [2], the target named is T1, Plasmin. Kind of test: biochemical. As to the method:
as §1
(i) Determination of prevention activity for fibrin decomposition
0.18 M borate-physiological salt buffer solution (pH = 7.4) to make the total volme to 600 pl. To this buffer solution, 200 µl of a 0.2% bovin fibrinogen, 100 µl of a 0.3 cassein unit/ml human […] solution, and 100 µl of a 50 unit/ml bovine thrombin solution, all dissolved in the above-mentioned buffer, are added at a temperature of 37°C in a constant temperature bath. Then, the dissolution time of the fibrin mass formed above is determined.

The target in a further test is human urokinase (Homo sapiens, UniProt P00749). Kind of test: Antiurokinase activity: prevention of S-2444 decomposition. In kind it is biochemical. Conditions: Table III, known compounds of Table II; substrate S-2444; *1: 0% Inhibition at the given concentration; read-out: I50 Urokinase S-2444. As to the method:
(5) Evaluation of Antiurokinase Activity
Determination of prevention activity for S-2444 decomposition
(§2) An inhibitor sample is dissolved in a 0.05 M Tris-hydrochloric acid buffer solution (pH = 8.8) to make the total volume to 400 pl. To this solution, 50 pl of a 1 mM S―2444 solution is added and the mixture is incubated at a temperature of 37°C for 5 minutes in a constant temperature bath. Then, 50 µl of a 500 unit/ ml human urokinase is added and the mixture is incubated at a temperature of 37°C for 5 minutes. Thereafter, 50 pl of 50% acetic acid is added to terminate the reaction. The absorbance of the p-nitroaniline formed in the reaction mixture is measured at 405 nm. Thus, the concentration 150 of the inhibitor sample, at which the absorbance is one half (i.e., 1/2) of that obtained in the absence of the inhibitor, is determined.

Test [3] addresses T2, bovine thrombin (Bos taurus, UniProt P00735). Kind of test: Antithrombin activity: inhibition of fibrin formation from fibrinogen (coagulation time). In kind it is biochemical. Conditions: Table III, known compounds of Table II; coagulation time extended twice; *1: 0% Inhibition at the given concentration; read-out: I50 Thrombin Fibrinogen. On the procedure: (§3) (2) Evaluation of Antithrombin Activity
(i) Determination of inhibition activity against fibrin formation
An inhibitor sample is dissolved in a 0.18 M borate-physiological salt buffer solution (pH = 7.4) to make the total volume to 500 µl. To this solution, 400 µl of a 0.2% bovine fibrinogen solution and 100 µl of a 4 unit/ ml bovine thrombin solution are added at a temperature of 37°C in a constant temperature bath. Thus, a coagulation time is determined. The inhibitor concentraion I50, at which the coagulation time obtained in the absence of the inhibitor is extended twice, is determined.

For another test, the target named is T3, bovine trypsin (Bos taurus, UniProt P00760).
T3 sequence (P00760 24-246): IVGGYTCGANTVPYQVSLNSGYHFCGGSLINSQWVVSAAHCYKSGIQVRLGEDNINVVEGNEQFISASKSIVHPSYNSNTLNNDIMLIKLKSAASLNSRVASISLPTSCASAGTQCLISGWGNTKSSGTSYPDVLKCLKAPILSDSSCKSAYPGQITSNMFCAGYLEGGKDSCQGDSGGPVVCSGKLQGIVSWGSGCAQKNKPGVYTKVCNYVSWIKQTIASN
Kind of test: Antitrypsin activity: inhibition of S-2238 decomposition. The class given is biochemical. Conditions: Table III, known compounds of Table II; substrate S-2238; *1: 0% Inhibition at the given concentration; read-out: I50 Trypsin S-2238. On the procedure: (3) Evaluation of Antitrypsin Activity
Determination of inhibition activity against S-2238 decomposition
An inhibitor sample is dissolved in a 0.05 M Tris-imidazole buffer solution (pH = 8.1) and 125 µl of a 1 mM S―2238 solution is added to make the total volume to 1.20 ml. The mixture is incubated at a temperature of 37°C for 5 minutes in a constant temperature bath. To this mixture, 0.05 ml of bovine trypsin is added and the absorbance, at 405 nm, of the p-nitroaniline formed per minute is determined at a temperature of 37°C by using the so-called initial velocity method. Thus, the concentration 15° of the inhibitor sample, at which the absorbance is one half (i.e., 1/2) of that obtained in the absence of the inhibitor, is determined.

In test [4] the target is T2, bovine thrombin. Kind of test: Antithrombin activity: prevention of S-2238 decomposition. The class given is biochemical. Conditions: Table III, known compounds of Table II; substrate S-2238; *1: 0% Inhibition at the given concentration; read-out: I50 Thrombin S-2238. As to the method:
as §3
(ii) Determination of prevention activity for S-2238 decomposition
An inhibitor sample is dissolved in a 0.05 M Tris-hydrochloric acid buffer solution (pH = 8.3) to make a total volume to 400 µl. To this solution, 50 µl of a […] S-2238 solution is added and the mixture is incubated at a temperature of 37°C for 5 minutes in a constant temperature bath. Then, 50 µl of a 0.2 unit/ml bovine thrombin solution is added thereto and the absorbance, at 405 nm, of the p-nitroaniline formed per minute is determined at a temperature of 37°C by using the so-called initial velocity method. Thus, the concentration 150 of the inhibitor sample at which the absorbance is one half (i.e., 1/2) of that obtained in the absence of the inhibitor, is determined.

The target in another test is human plasma kallikrein (Homo sapiens, UniProt P03952). Kind of test: Anti-plasma kallikrein activity: prevention of S-2302 decomposition. The class given is biochemical. Conditions: Table III, known compounds of Table II; substrate S-2302; *1: 0% Inhibition at the given concentration; read-out: I50 Plasma Kallikrein S-2302. As to the method:
(4) Evaluation of Anti-Plasma Kallikrein Activity
Determination of prevention activity for S―2302 decomposition
as §2, with “= 7.8)” for “= 8.8)”, “a 2” for “a 1”, “mM S-2302” for “mM S―2444”, “a 0.12” for “a 500”, “human plasma kallikrein” for “human urokinase”, “the inhibitor sample,” for “the inhibitor,”

Setting [5] is: Table IV, present compounds, plasmin, read-out: I50 S-2251.
[6] abbreviates: Table IV, present compounds, plasmin, fibrin decomposition, read-out: I50 Fibrin.
[7] abbreviates: Table III, known compounds of Table II, *1: 0% Inhibition at the given concentration, read-out: I50 Plasmin S-2251.
Setting [8] is: Table III, known compounds of Table II, fibrin dissolution time extended twice, *1: 0% Inhibition, *2: 19% Inhibition at the concentration, read-out: I50 Plasmin Fibrin.

T1 sequence (P00747 581-810 limits assumed): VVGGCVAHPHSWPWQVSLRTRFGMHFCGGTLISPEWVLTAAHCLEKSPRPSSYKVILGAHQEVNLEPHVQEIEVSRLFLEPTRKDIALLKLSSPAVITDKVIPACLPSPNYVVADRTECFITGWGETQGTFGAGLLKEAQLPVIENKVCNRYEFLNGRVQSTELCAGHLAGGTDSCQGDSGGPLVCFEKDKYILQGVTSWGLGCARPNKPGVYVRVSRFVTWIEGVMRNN
T1 sequence (P00747 97-580 partner limits assumed): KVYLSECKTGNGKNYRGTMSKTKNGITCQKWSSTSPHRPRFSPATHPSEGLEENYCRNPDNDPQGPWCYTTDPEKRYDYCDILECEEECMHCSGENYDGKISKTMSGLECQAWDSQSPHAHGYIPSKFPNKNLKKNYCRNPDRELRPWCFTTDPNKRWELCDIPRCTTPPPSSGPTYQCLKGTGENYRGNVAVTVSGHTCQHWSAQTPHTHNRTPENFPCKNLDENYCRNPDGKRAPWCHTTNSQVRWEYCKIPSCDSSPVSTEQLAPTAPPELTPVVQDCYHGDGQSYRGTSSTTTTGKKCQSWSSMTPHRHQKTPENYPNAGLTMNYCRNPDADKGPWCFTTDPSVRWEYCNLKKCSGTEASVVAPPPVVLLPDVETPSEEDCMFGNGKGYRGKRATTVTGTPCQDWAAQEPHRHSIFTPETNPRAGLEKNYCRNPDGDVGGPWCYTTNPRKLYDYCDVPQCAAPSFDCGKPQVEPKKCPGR
Sequence of human plasma kallikrein (P03952 391-638 limits assumed): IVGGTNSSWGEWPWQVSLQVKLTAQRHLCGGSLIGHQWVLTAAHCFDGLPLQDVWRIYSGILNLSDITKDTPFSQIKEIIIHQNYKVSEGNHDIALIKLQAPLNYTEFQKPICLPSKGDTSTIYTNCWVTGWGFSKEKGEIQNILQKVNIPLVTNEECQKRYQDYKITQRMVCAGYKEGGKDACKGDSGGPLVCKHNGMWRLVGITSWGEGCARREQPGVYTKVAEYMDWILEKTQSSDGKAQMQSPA
Sequence of human plasma kallikrein (P03952 20-390 partner limits assumed): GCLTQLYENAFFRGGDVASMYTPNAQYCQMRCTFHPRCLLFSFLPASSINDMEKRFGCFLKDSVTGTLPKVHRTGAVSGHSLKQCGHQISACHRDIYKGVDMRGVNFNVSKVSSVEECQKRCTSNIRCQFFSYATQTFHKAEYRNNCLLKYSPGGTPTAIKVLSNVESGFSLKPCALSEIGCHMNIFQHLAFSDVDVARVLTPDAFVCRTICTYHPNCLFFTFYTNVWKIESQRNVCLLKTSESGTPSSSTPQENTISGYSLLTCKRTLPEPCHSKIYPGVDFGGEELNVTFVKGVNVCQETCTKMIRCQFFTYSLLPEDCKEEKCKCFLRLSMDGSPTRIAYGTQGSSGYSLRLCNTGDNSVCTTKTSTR

Turning to `CCOC(=O)c1c(C)cc(NC(=O)[C@H](CCCCN)NS(=O)(=O)c2ccc(C)cc2)cc1C` [compound 40], the IC50 on Plasmin [1] (setting [5]) is 590 µM; on Plasmin [2] (setting [6]), 440 µM.
On to `CN(C)c1cccc2c(S(=O)(=O)N[C@@H](CCCCN)C(=O)N3CCC(Cc4ccccc4)CC3)cccc12` [compound 48], for which the IC50 at Plasmin [1] (setting [5]) worked out at 130 µM.
Turning to `NCCCC[C@H](NS(=O)(=O)c1cccc2ccccc12)C(=O)Nc1ccc([N+](=O)[O-])cc1` [Compound No. 10], the IC50 on Plasmin [1] (setting [5]) came to 1700 µM; on Plasmin [2] (setting [6]), 310 µM.
For `Cc1ccc(S(=O)(=O)N[C@@H](CCCCN)C(=O)Nc2ccc(Oc3ccccc3)cc2)cc1` [compound 31], in that order: 780 µM and 150 µM.
Consider `Cc1ccc(S(=O)(=O)N[C@H](CCCCN)C(=O)Nc2ccc(C(=O)c3ccccc3)cc2)cc1` [compound 20], for which the IC50 is 2000 µM on Plasmin [1] (setting [5]) and 1000 µM on Plasmin [2] (setting [6]).
For `CCOC(=O)[C@H](NC(=O)[C@H](CCCCN)NS(=O)(=O)c1ccc(C)cc1)c1ccccc1` [compound 22] (Tos-Lys-[dPhg]-OEt) the same measures were 650 µM and 600 µM.
For `Cc1ccc(S(=O)(=O)N[C@@H](CCCCN)C(=O)Nc2ccc(C(F)(F)F)cc2)cc1` [compound 32], in that order: 600 µM and 430 µM.
For `Cc1ccc(S(=O)(=O)N[C@@H](CCCCN)C(=O)N2CCC(Cc3ccccc3)CC2)cc1` [compound 21] the same measures were 300 µM and 150 µM.
`CCOC(=O)c1ccc(NC(=O)[C@H](CCCCN)NS(=O)(=O)c2ccc(C)cc2)cc1` [compound 33]: the IC50 on Plasmin [1] (setting [5]) worked out at 650 µM; at Plasmin [2] (setting [6]), 540 µM.
For `NCCCCCC(=O)N[C@@H](CCCCN)C(=O)O` [Compound No. 7], the IC50 is above 1000 µM at Plasmin [1] (setting [7]); 350 µM on Plasmin [1] (setting [5]); above 1000 µM on human urokinase; above 1000 µM on Plasmin [2] (setting [8]); 300 µM at Plasmin [2] (setting [6]); above 1000 µM on bovine thrombin [3]. Also, the IC50 on bovine trypsin is above 200 µM; at bovine thrombin [4], above 1000 µM; on human plasma kallikrein it was above 1000 µM.
Take `NCCCC[C@H](NS(=O)(=O)c1ccccc1)C(N)=O` [compound 4]: the IC50 at Plasmin [1] (setting [7]) is above 1000 µM; at human urokinase, above 1000 µM; at Plasmin [2] (setting [8]), above 1000 µM; at bovine thrombin [3], above 1000 µM; at bovine trypsin it was above 150 µM; on bovine thrombin [4], above 1000 µM. Further, the IC50 on human plasma kallikrein was above 1000 µM.
For the compound `NCCCC[C@H](NC(=O)c1ccccc1)C(N)=O` [Compound No. 8], the IC50 at Plasmin [1] (setting [7]) was above 1000 µM; on Plasmin [1] (setting [5]) it was 250 µM; at human urokinase, above 1000 µM; at Plasmin [2] (setting [8]), above 1000 µM; on Plasmin [2] (setting [6]) it was 140 µM; on bovine thrombin [3] it was above 1000 µM. Besides, the IC50 on bovine trypsin was above 300 µM; at bovine thrombin [4] it was above 1000 µM; on human plasma kallikrein it was above 1000 µM.
Turning to `CC1CCCN(C(=O)[C@H](CCCCN)NS(=O)(=O)c2cccc3c(N(C)C)cccc23)C1` (some centres unmarked) [compound 37], the IC50 on Plasmin [1] (setting [5]) was 2000 µM; at Plasmin [2] (setting [6]), 730 µM.
On to `Cc1ccc(S(=O)(=O)N[C@@H](CCCCN)C(=O)O)cc1` [compound 5], for which the IC50 on Plasmin [1] (setting [7]) was 1400 µM; at Plasmin [2] (setting [8]), 1000 µM.
In the case of `Cc1ccc(S(=O)(=O)N[C@@H](CCCCN)C(=O)Nc2ccc(Cl)c(Cl)c2)cc1` [compound 35], the IC50 worked out at 370 µM at Plasmin [1] (setting [5]) and 190 µM on Plasmin [2] (setting [6]).
Consider `Cc1ccc(S(=O)(=O)N[C@@H](CCCCN)C(=O)Nc2cccc(C#N)c2)cc1` [compound 29], for which the IC50 at Plasmin [1] (setting [5]) worked out at 480 µM; on Plasmin [2] (setting [6]), 340 µM.
Regarding `Cc1ccc(S(=O)(=O)N[C@@H](CCCCN)C(=O)Nc2cccc(Cl)c2)cc1` [compound 18], the IC50 at Plasmin [1] (setting [5]) was determined as 600 µM; at Plasmin [2] (setting [6]), 350 µM.
As for `Cc1ccc(S(=O)(=O)N[C@@H](CCCCN)C(=O)Nc2cc(C)nc3ccccc23)cc1` [compound 42], the IC50 on Plasmin [1] (setting [5]) turned out to be 230 µM.
